Data reported in patent US7452865B2, “Antagonistic analogs of GH RH (2003)” (The Administrare's of the Tulane Educational Fund, priority 2004, dated 2008).
Square brackets hold non-standard residues; d marks the D form. Peptide text beside a SMILES is read from it. * marks the point of attachment. Phe(4-Cl) = N[C@@H](Cc1ccc(Cl)cc1)C(=O)O; C14 diacid = O=C(O)CCCCCCCCCCCCC(=O)*; HOOC(CH2)8CO = O=C(O)CCCCCCCCC(=O)*; HOOC(CH2)6CO = O=C(O)CCCCCCC(=O)*; hArg = N=C(N)NCCCC[C@H](N)C(=O)O; Decanoyl = CCCCCCCCCC(=O)*; Nle = CCCC[C@H](N)C(=O)O; Abu = CC[C@H](N)C(=O)O; PhAc = O=C(Cc1ccccc1)*

What was measured:
[1] = system: hGH-RH(1-29)NH2 induced GH release; experiment: Inhibition of GH release in superfused rat pituitary system; format: cell-based; conditions: for GH response (% of control) 0 min / GH response (% of control) 30 min / GH response (% of control) 60 min / GH response (% of control) 90 min / GH response (% of control) 120 min: antagonist 30 nM; for GH response (% of control) 0 min: 1 nM hGH-RH(1-29)NH2 at 0 min; for GH response (% of control) 30 min: 1 nM hGH-RH(1-29)NH2 at 30 min; for GH response (% of control) 60 min: 1 nM hGH-RH(1-29)NH2 at 60 min; for GH response (% of control) 90 min: 1 nM hGH-RH(1-29)NH2 at 90 min; for GH response (% of control) 120 min: 1 nM hGH-RH(1-29)NH2 at 120 min; for endocrine antagonistic potency: inhibition of the GH release stimulated by hGH-RH(1-29)NH2 (in words): general statement, in vitro and in vivo
Procedure, shortened: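 GH output was quantified by double-antibody RIA in superfusates of rat pituitary cells. Peptides were applied for 9 min at various concentrations before a 3-min 1 nM hGH-RH(1-29)NH2 pulse, with further pulses 30–120 min later; net integral responses given as percent of the original response.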

[2] = system: GH-RH receptor isoforms on membrane fractions of human PC-3 prostate tumors; format: binding; conditions: for binding affinities to the tumoral receptors for GH-RH (in words): general statement
Description: Ligand competition assays with ^125I-labeled GH-RH antagonist JV-1-42 were used to determine the binding affinities of GH-RH analogs to the GH-RH receptor isoforms on membrane fractions of human PC-3 prostate tumors. The methods used have been described in detail (Halmos G, Schally A V, Varga J L, Plonowski A, Rekasi Z, Czompoly T, Proc Natl Acad Sci USA 97: 10555-10560, 2000; Halmos G, Schally A V, Czompoly T, Krupa M, Varga J L, Rekasi Z, J Clin Endocrinol Metab 87: 4707-4714, 2002), hereby incorporated by reference. Briefly, radioiodinated derivatives of JV-142 are prepared by the chloramine-T method. PC-3 tumors, grown as xenografts in nude mice, are used to prepare crude membranes. PC-3 membrane homogenates are incubated with [^125I]JV-142 and increasing concentrations (10^−12 to 10^−6 M) of nonradioactive antagonist peptides as competitors. The pellet is separated by centrifugation and counted for radioactivity in a gamma-counter. The final binding affinities are estimated by K1 (dissociation constant of the inhibitor-receptor complex) and are determined by the Ligand PC and McPherson computer programs of Munson and Rodbard (P. J. Munson and D. Rodbard, Anal. Biochem. […]: 220-239, 1980). Relative affinities (R.A.) compared to reference peptides such as JV-1-36 or JV-1-38, are calculated as the ratio of K1 of the reference peptide to the K, of the tested GH-RH antagonist.

Relative Affinities (R.A.) to membrane receptors on PC-3 human prostate cancers [2]	binding affinities to the tumoral receptors for GH-RH (in words) [2]	Compound	GH response (% of control) 0 min [1]	GH response (% of control) 30 min [1]	GH response (% of control) 60 min [1]	GH response (% of control) 90 min [1]	GH response (% of control) 120 min [1]	endocrine antagonistic potency: inhibition of the GH release stimulated by hGH-RH(1-29)NH2 (in words) [1]
12	extremely high binding affinities	CCCC[C@H](NC(=O)[C@@H](NC(=O)[C@H](CC(=O)O)NC(=O)[C@H](CCC(N)=O)NC(=O)[C@H](CC(C)C)NC(=O)[C@H](CC(C)C)NC(=O)[C@H](CCCCN)NC(=O)[C@H](CCCNC(=N)N)NC(=O)[C@H](C)NC(=O)[C@H](CO)NC(=O)[C@H](CC(C)C)NC(=O)[C@H](CCC(N)=O)NC(=O)[C@H](CC)NC(=O)[C@H](CC(C)C)NC(=O)[C@@H](NC(=O)[C@H](CCCCN)NC(=O)[C@H](CCCNC(=N)N)NC(=O)[C@H](Cc1ccc(O)cc1)NC(=O)[C@H](CCCNC(=N)N)NC(=O)[C@H](CC(N)=O)NC(=O)[C@@H](NC(=O)[C@H](Cc1ccc(Cl)cc1)NC(=O)[C@@H](NC(=O)[C@H](C)NC(=O)[C@H](CC(=O)O)NC(=O)[C@@H](CCCNC(=N)N)NC(=O)[C@H](Cc1ccc(O)cc1)NC(=O)CCCCCCCCC(=O)O)[C@@H](C)CC)[C@@H](C)O)C(C)C)[C@@H](C)CC)C(=O)N[C@H](CCCNC(=N)N)C(=O)N[C@@H](CCCCNC(=N)N)C(N)=O [Peptide 7, [HOOC(CH2)8CO-Tyr^1, D-Arg^2, Phe(pCl)^6, Arg^9, Abu^15, Nle^27, D-Arg^28, Har^29]hGH-RH(1-29)NH2] ({HOOC(CH2)8CO}-Y[dR]DAI[Phe(4-Cl)]TNRYRKVL[Abu]QLSARKLLQDI[Nle][dR][hArg]-NH2)	23 % of control	13 % of control	11 % of control	14 % of control	14 % of control	high endocrine antagonistic potencies
4	extremely high binding affinities	CCCC[C@H](NC(=O)[C@@H](NC(=O)[C@H](CC(=O)O)NC(=O)[C@H](CCC(N)=O)NC(=O)[C@H](CC(C)C)NC(=O)[C@H](CC(C)C)NC(=O)[C@H](CCCCN)NC(=O)[C@H](CCCNC(=N)N)NC(=O)[C@H](C)NC(=O)[C@H](CO)NC(=O)[C@H](CC(C)C)NC(=O)[C@H](CCC(N)=O)NC(=O)[C@H](CC)NC(=O)[C@H](CC(C)C)NC(=O)[C@@H](NC(=O)[C@H](CCCCN)NC(=O)[C@H](CCCNC(=N)N)NC(=O)[C@H](Cc1ccc(O)cc1)NC(=O)[C@H](CCCNC(=N)N)NC(=O)[C@H](CC(N)=O)NC(=O)[C@@H](NC(=O)[C@H](Cc1ccc(Cl)cc1)NC(=O)[C@@H](NC(=O)[C@H](C)NC(=O)[C@H](CC(=O)O)NC(=O)[C@@H](CCCNC(=N)N)NC(=O)[C@H](Cc1ccc(O)cc1)NC(=O)CCCCCCC(=O)O)[C@@H](C)CC)[C@@H](C)O)C(C)C)[C@@H](C)CC)C(=O)N[C@H](CCCNC(=N)N)C(=O)N[C@@H](CCCCNC(=N)N)C(N)=O [Peptide 5, [HOOC(CH2)6CO-Tyr^1, D-Arg^2, Phe(pCl)^6, Arg^9, Abu^15, Nle^27, D-Arg^28, Har^29]hGH-RH(1-29)NH2] ({HOOC(CH2)6CO}-Y[dR]DAI[Phe(4-Cl)]TNRYRKVL[Abu]QLSARKLLQDI[Nle][dR][hArg]-NH2)	22 % of control	20 % of control	23 % of control	27 % of control	27 % of control	
0.6		CCCCCCCCCC(=O)N[C@@H](Cc1ccc(O)cc1)C(=O)N[C@H](CCCNC(=N)N)C(=O)N[C@@H](CC(=O)O)C(=O)N[C@@H](C)C(=O)N[C@H](C(=O)N[C@@H](Cc1ccc(Cl)cc1)C(=O)N[C@H](C(=O)N[C@@H](CC(N)=O)C(=O)N[C@@H](CCCNC(=N)N)C(=O)N[C@@H](Cc1ccc(O)cc1)C(=O)N[C@@H](CCCNC(=N)N)C(=O)N[C@@H](CCCCN)C(=O)N[C@H](C(=O)N[C@@H](CC(C)C)C(=O)N[C@@H](CC)C(=O)N[C@@H](CCC(N)=O)C(=O)N[C@@H](CC(C)C)C(=O)N[C@@H](CO)C(=O)N[C@@H](C)C(=O)N[C@@H](CCCNC(=N)N)C(=O)N[C@@H](CCCCN)C(=O)N[C@@H](CC(C)C)C(=O)N[C@@H](CC(C)C)C(=O)N[C@@H](CCC(N)=O)C(=O)N[C@@H](CC(=O)O)C(=O)N[C@H](C(=O)N[C@@H](CCCC)C(=O)N[C@H](CCCNC(=N)N)C(=O)N[C@@H](CCCCNC(=N)N)C(N)=O)[C@@H](C)CC)C(C)C)[C@@H](C)O)[C@@H](C)CC [Peptide 6, [CH3(CH2)8CO-Tyr^1, D-Arg^2, Phe(pCl)^6, Arg^9, Abu^15, Nle^27, D-Arg^28, Har^29]hGH-RH(1-29)NH2] (Decanoyl-Y[dR]DAI[Phe(4-Cl)]TNRYRKVL[Abu]QLSARKLLQDI[Nle][dR][hArg]-NH2)	56 % of control	22 % of control	12 % of control	15 % of control	19 % of control	
1.3	extremely high binding affinities	CCCC[C@H](NC(=O)[C@@H](NC(=O)[C@H](CC(=O)O)NC(=O)[C@H](CCC(N)=O)NC(=O)[C@H](CC(C)C)NC(=O)[C@H](CC(C)C)NC(=O)[C@H](CCCCN)NC(=O)[C@H](CCCNC(=N)N)NC(=O)[C@H](C)NC(=O)[C@H](CO)NC(=O)[C@H](CC(C)C)NC(=O)[C@H](CCC(N)=O)NC(=O)[C@H](CC)NC(=O)[C@H](CC(C)C)NC(=O)[C@@H](NC(=O)[C@H](CCCCN)NC(=O)[C@H](CCCNC(=N)N)NC(=O)[C@H](Cc1ccc(O)cc1)NC(=O)[C@H](CCCNC(=N)N)NC(=O)[C@H](CC(N)=O)NC(=O)[C@@H](NC(=O)[C@H](Cc1ccc(Cl)cc1)NC(=O)[C@@H](NC(=O)[C@H](C)NC(=O)[C@H](CC(=O)O)NC(=O)[C@@H](CCCNC(=N)N)NC(=O)[C@H](Cc1ccc(O)cc1)NC(=O)CCCCCCCCCCCCC(=O)O)[C@@H](C)CC)[C@@H](C)O)C(C)C)[C@@H](C)CC)C(=O)N[C@H](CCCNC(=N)N)C(=O)N[C@@H](CCCCNC(=N)N)C(N)=O [Peptide 11, [HOOC(CH2)12CO-Tyr^1, D-Arg^2, Phe(pCl)^6, Arg^9, Abu^15, Nle^27, D-Arg^28, Har^29]hGH-RH(1-29)NH2] ({C14 diacid}-Y[dR]DAI[Phe(4-Cl)]TNRYRKVL[Abu]QLSARKLLQDI[Nle][dR][hArg]-NH2)	14 % of control	24 % of control	29 % of control	34 % of control	32 % of control	

Compound	Relative Affinities (R.A.) to membrane receptors on PC-3 human prostate cancers [2]	binding affinities to the tumoral receptors for GH-RH (in words) [2]	GH response (% of control) 0 min [1]	GH response (% of control) 30 min [1]	GH response (% of control) 60 min [1]	GH response (% of control) 90 min [1]	GH response (% of control) 120 min [1]	endocrine antagonistic potency: inhibition of the GH release stimulated by hGH-RH(1-29)NH2 (in words) [1]
CCCC[C@H](NC(=O)[C@@H](NC(=O)[C@H](CC(=O)O)NC(=O)[C@H](CCC(N)=O)NC(=O)[C@H](CC(C)C)NC(=O)[C@H](CC(C)C)NC(=O)[C@H](CCCCN)NC(=O)[C@H](CCCNC(=N)N)NC(=O)[C@H](C)NC(=O)[C@H](CO)NC(=O)[C@H](CC(C)C)NC(=O)[C@H](CCC(N)=O)NC(=O)[C@H](CC)NC(=O)[C@H](CC(C)C)NC(=O)[C@@H](NC(=O)[C@H](CCCCN)NC(=O)[C@H](CCCNC(=N)N)NC(=O)[C@H](Cc1ccc(OC)cc1)NC(=O)[C@H](Cc1c[nH]cn1)NC(=O)[C@H](CC(N)=O)NC(=O)[C@@H](NC(=O)[C@H](Cc1ccc(Cl)cc1)NC(=O)[C@@H](NC(=O)[C@H](C)NC(=O)[C@H](CC(=O)O)NC(=O)[C@@H](CCCNC(=N)N)NC(=O)[C@H](Cc1ccc(O)cc1)NC(=O)Cc1ccccc1)[C@@H](C)CC)[C@@H](C)O)C(C)C)[C@@H](C)CC)C(=O)N[C@H](CCCNC(=N)N)C(=O)N[C@@H](CCCCNC(=N)N)C(N)=O [Peptide 69, [PhAc-Tyr^1, D-Arg^2, Phe(pCl)^6, His^9, Tyr(Me)^10, Abu^15, Nle^27, D-Arg^28, Har^29]hGH-RH(1-29)NH2] (PhAc-Y[dR]DAI[Phe(4-Cl)]TNHY(Me)RKVL[Abu]QLSARKLLQDI[Nle][dR][hArg]-NH2)		extremely high binding affinities	9 % of control	12 % of control	18 % of control	18 % of control	25 % of control	high endocrine antagonistic potencies
